Here are results for four compounds from article PMC10384572, “Marine Meroterpenoids Isolated from Gongolaria abies-marina Induce Programmed Cell Death in Naegleria fowleri” (Pharmaceuticals, 2023).

By CC50 is commonly meant the concentration that lowers cell viability or growth by half. Higher therefore signals better tolerance by the cells.

Data set [1] deals with N. fowleri ATCC® 30808 trophozoites. The data set is described as follows: Mitochondrial membrane potential (JC-1). The format is cell-based, Naegleria fowleri. As to conditions: IC90 of compound, 24 h. The procedure: The evaluation of the programmed cell death induction by the meroterpenoids was performed in the ATCC® 30808™ N. fowleri trophozoites. Cells were incubated over 24 h with the IC90 (Table 1) of the compounds at 37 °C. In these experiments, the presence of different metabolic events which are characteristics of the programmed cell death process were evaluated. For this, five different apoptosis events marker kits (the Hoechst 33342/Propidium Iodide, SYTOX™ Green kit, CellROX® Deep Reagent, JC-1 Mitochondrial Membrane Potential Detection Kit, and the Celltiter-Glo® Luminescent Cell Viability Assay) were used according to manufacturer’s instructions. Furthermore, the percentage of stained cells was determined after incubating the treated and non-treated cells with the stains. The mitochondrial damage was evaluated using two different reagents. Firstly, the JC-1 Mitochondrial Membrane Potential Detection Kit (Cayman Chemicals Vitro SA, Madrid, Spain) was used to assess the failure of the mitochondrial membrane potential. Cells were incubated with the compounds at 37 °C to finally add the JC-1 reagent after 24 h. The JC-1 dye is presented in the mitochondria of untreated cells in aggregate form and emits red fluorescence. However, when the membrane potential decreases (unhealthy cells) the dye is presented in monomers, emitting green fluorescence. Images were obtained with an EVOS™ M5000 Imaging System (Invitrogen by Thermo Fisher Scientific). In the PCD assays, the number of stained and unstained cells was measured after the performance of the experiments. Regarding the JC-1 Mitochondrial Membrane Potential assays, the ratio between the emitted red fluorescence (at 595 nm) and green fluorescence (at 535 nm) was determined. For each kit, images (×40) with at least 80 cells were selected and analyzed. […] The graphs illustrate the mean value ± SD of three different tests. Finally, a one-way analysis of variance (ANOVA) was assessed to determine the statistical differences between the treated cells and the negative control amoebae, ** p < 0.01; *** p < 0.001; **** p < 0.0001 significant differences.

The test system is the same in data set [2]. The data set is described as follows: ATP production (Celltiter-Glo Luminescent Cell Viability Assay). The format is cell-based, Naegleria fowleri. As to conditions: IC90 of compound, 24 h, 2 × 10^5 cells/mL. As to the method: The evaluation of the programmed cell death induction by the meroterpenoids was performed in the ATCC® 30808™ N. fowleri trophozoites. Cells were incubated over 24 h with the IC90 (Table 1) of the compounds at 37 °C. In these experiments, the presence of different metabolic events which are characteristics of the programmed cell death process were evaluated. For this, five different apoptosis events marker kits (the Hoechst 33342/Propidium Iodide, SYTOX™ Green kit, CellROX® Deep Reagent, JC-1 Mitochondrial Membrane Potential Detection Kit, and the Celltiter-Glo® Luminescent Cell Viability Assay) were used according to manufacturer’s instructions. Furthermore, the percentage of stained cells was determined after incubating the treated and non-treated cells with the stains. On the other hand, the measurement of the ATP production was also assessed in order to confirm the mitochondrial damage in the amoebae. For this, the Celltiter-Glo® Luminescent Cell Viability Assay (Promega Biotech Ibérica, Madrid, Spain) was used. The emitted luminescence, which is proportional to the ATP levels, was measured in an EnSpire® Multimode Plate Reader (Perkin Elmer, Madrid, Spain). Experiments were performed in triplicate. In both treated and untreated cells, the ATP production of a concentration of 2 × 10^5 cells/mL was measured.

The nature of data set [3]: In vitro cytotoxicity against murine macrophages (alamarBlue). The format is cell-based. As to conditions: mouse, J774A.1 murine macrophages (ATCC TIB-67), murine macrophages J774A.1, 24 h, mean ± SD. The procedure:
Murine macrophages from the J774A.1 cell line (ATCC® TIB-67) were maintained in Dulbecco’s Modified Eagle’s medium (DMEM) in order to evaluate the toxicity of the compounds. In addition, 10% (v/v) FBS and 10 μg/mL gentamicin (Sigma-Aldrich, Madrid, Spain) were added to the growth medium. Cells were grown in a 5% CO2 atmosphere at 37 °C.
For the cytotoxicity assays, the same protocol as detailed in Section 4.4 above was used. Murine macrophages were incubated with serial dilutions of the evaluated compounds at 37 °C in a 5% CO2 atmosphere over 24 h. The obtained data were analyzed as described in the previous section in order to calculate the CC50.
The in vitro IC50, IC90, and CC50 of the compounds were determined by a non-linear regression with a 95% confidence limit. The SigmaPlot 12.0 software (Systat Sofware Inc., London, UK) was used to perform the data analysis using a paired two-tailed t-test. Values of p < 0.05 were considered significant. The data represent the mean value and the SD of the conducted three different experiments.
Background: Alamar Blue is a resazurin reagent that responds to reducing activity.

Data set [4] relates to N. fowleri ATCC® 30808 trophozoites. The data set is described as follows: Chromatin condensation detection (Hoechst 33342/propidium iodide). Type of data set: cell-based, Naegleria fowleri. As to conditions: IC90 of compound, 24 h. As to the method: The evaluation of the programmed cell death induction by the meroterpenoids was performed in the ATCC® 30808™ N. fowleri trophozoites. Cells were incubated over 24 h with the IC90 (Table 1) of the compounds at 37 °C. In these experiments, the presence of different metabolic events which are characteristics of the programmed cell death process were evaluated. For this, five different apoptosis events marker kits (the Hoechst 33342/Propidium Iodide, SYTOX™ Green kit, CellROX® Deep Reagent, JC-1 Mitochondrial Membrane Potential Detection Kit, and the Celltiter-Glo® Luminescent Cell Viability Assay) were used according to manufacturer’s instructions. Furthermore, the percentage of stained cells was determined after incubating the treated and non-treated cells with the stains. For the chromatin condensation assay, the Hoechst 33342 and the PI (Life Technologies, Madrid, Spain) were used. The images were captured in the EVOS™ M5000 Imaging System (Invitrogen by Thermo Fisher Scientific). A concentration of 5 × 10^5 cell/mL was seeded and incubated with compounds over 24 h. Three different cell population can be distinguished with this kit. Firstly, healthy cells will barely show blue fluorescence whereas in the presence of condensed chromatin an intense blue fluorescence corresponding to the Hoechst 33342 stain will be observable. Finally, dead cells will show red fluorescence due to the linkage between the nucleus and the PI. In the PCD assays, the number of stained and unstained cells was measured after the performance of the experiments. Regarding the JC-1 Mitochondrial Membrane Potential assays, the ratio between the emitted red fluorescence (at 595 nm) and green fluorescence (at 535 nm) was determined. For each kit, images (×40) with at least 80 cells were selected and analyzed. […] The graphs illustrate the mean value ± SD of three different tests. Finally, a one-way analysis of variance (ANOVA) was assessed to determine the statistical differences between the treated cells and the negative control amoebae, ** p < 0.01; *** p < 0.001; **** p < 0.0001 significant differences.

As to `COc1c(C)cc(O)cc1C/C=C(\C)CC(=O)/C=C(\C)CCC[C@@H](C)C(=O)/C=C/C(C)(C)O` [1′Methoxyamentadione (3), 1′-methoxyamentadione], the “Mitochondrial membrane potential (JC-1)” value in data set [1] is “mitochondrial membrane potential disruption”. The “Decrease of ATP production compared to untreated cells” value (from here on “Decrease of ATP production”) in data set [2] was found to be 82.62%. In data set [3], this compound came in with a CC50 at 24 h of 26.2 ± 2.25 µM and a CC90 at 24 h of 68.7 ± 7.46 µM. Moreover, in data set [4], the “Apoptotic phase suggested by Hoechst/PI staining” value (from here on “Apoptotic phase suggested”) is “early apoptotic phase”, the “Chromatin condensation (Hoechst 33342 stain)” value (“Chromatin condensation” below) is “induced DNA condensation” and the “Propidium iodide (PI) red fluorescence” value is recorded as “no red fluorescence”.

On to `COc1c(C)cc(O)cc1C/C=C(\C)CC(=O)/C=C(/C)CCC[C@@H](C)C(=O)/C=C/C(C)(C)O` [6Z-1′Methoxyamentadione (2), 6Z-1′-methoxyamentadione], for which the “Mitochondrial membrane potential (JC-1)” value in data set [1] was “mitochondrial membrane potential disruption”. The “Decrease of ATP production” value in data set [2] was 92.49%. In data set [3], this compound showed a 50% cytotoxic concentration (CC50) at 24 h of 26.6 ± 4.03 µM and a CC90 at 24 h of 67.2 ± 6.32 µM. In addition, in data set [4], the “Apoptotic phase suggested” value was “late apoptotic phase”, the “Chromatin condensation” value was “induced DNA condensation” and the “Propidium iodide (PI) red fluorescence” value is given as “showed red fluorescence”.

For the compound `COc1c(C)cc(O)cc1C/C=C(\C)CC(=O)/C=C(\C)CCCC(C)=O` [Cystomexicone B (6), cystomexicone B], the “Mitochondrial membrane potential (JC-1)” value in data set [1] is reported as “mitochondrial membrane potential disruption”. Moreover, in data set [2], the “Decrease of ATP production” value came to 65.59%. Besides, in data set [3], the CC50 at 24 h was more than 279 µM and the CC90 at 24 h was more than 500 µM. Further, in data set [4], the “Apoptotic phase suggested” value is given as “early apoptotic phase”, the “Chromatin condensation” value is “induced DNA condensation” and the “Propidium iodide (PI) red fluorescence” value is “no red fluorescence”.

With `COc1c(C)cc(O)cc1C/C=C(\C)CC(=O)C/C(C)=C/CC[C@@H](C)C(=O)/C=C/C(C)(C)O` [Gongolarone B (1), gongolarone B], in data set [1], the “Mitochondrial membrane potential (JC-1)” value was “mitochondrial membrane potential disruption”. In data set [2], the “Decrease of ATP production” value was determined as 85.75%. Also, in data set [3], the cytotoxic concentration (CC50) at 24 h stood at 25.6 ± 4.16 µM and the CC90 at 24 h came to 72.9 ± 5.94 µM. In addition, in data set [4], the “Apoptotic phase suggested” value was “late apoptotic phase”, the “Chromatin condensation” value is recorded as “induced DNA condensation” and the “Propidium iodide (PI) red fluorescence” value is “showed red fluorescence”.
